Experimental data: patent publication US12673961B2 (Agios Pharmaceuticals, Inc., priority 2022, dated 2026)

target: T1, human PAH with the R408W mutation (Homo sapiens, UniProt P00439, R408W); test: Cell Based Phenylalanine Flux Assay; details: A375 cells expressing human R408W PAH; 24 hrs with compound, then sepiapterin and 13C9,15N-Phenylalanine for 4 hours; 13C-Tyrosine by LC-MS; average where tested multiple times; read-out: AC50;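 further: Ten-point dose curve from 2-fold serial dilutions, run in duplicate at 0.5% DMSO final, tracer step used 20 µM sepiapterin and 800 µM labeled phenylalanine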
T1 construct: expressed in transfected cells
T1 sequence (P00439 1-452 R408W): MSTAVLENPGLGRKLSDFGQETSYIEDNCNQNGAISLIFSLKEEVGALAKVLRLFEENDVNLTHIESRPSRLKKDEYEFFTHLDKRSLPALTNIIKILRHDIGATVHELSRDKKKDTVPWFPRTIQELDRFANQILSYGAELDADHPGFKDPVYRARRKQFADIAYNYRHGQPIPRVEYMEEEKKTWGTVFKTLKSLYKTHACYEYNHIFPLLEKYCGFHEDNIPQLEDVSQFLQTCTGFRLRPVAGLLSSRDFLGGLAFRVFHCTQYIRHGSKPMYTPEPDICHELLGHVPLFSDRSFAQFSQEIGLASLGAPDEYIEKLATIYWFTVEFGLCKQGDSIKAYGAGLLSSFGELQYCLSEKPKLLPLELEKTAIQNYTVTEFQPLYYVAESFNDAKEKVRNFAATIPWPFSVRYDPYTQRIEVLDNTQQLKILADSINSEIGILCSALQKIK

| AC50 | Compound |
| --- | --- |
| 1 to 5 µM | Cc1c(-c2nnc(C(=O)N3CCc4[nH]cnc4[C@@H]3c3cc4c(C(C)C)cccn4n3)o2)cnn1C [Example 1949, (R)-(5-(1,5-dimethyl-1H-pyrazol-4-yl)-1,3,4-oxadiazol-2-yl)(4-(4-isopropylpyrazolo [1,5-a]pyridin-2-yl)-1,4,6,7-tetrahydro-5H-imidazo[4,5-c]pyridin-5-yl)methanone] |
| > 5 µM | Fc1ccc(-c2nnc(N3CCc4[nH]cnc4[C@@H]3c3cc4c(F)cccn4n3)o2)cc1 [Example 1952, (R)-2-(4-fluorophenyl)-5-(4-(4-fluoropyrazolo[1,5-a]pyridin-2-yl)-1,4,6,7-tetrahydro-5H-imidazo[4,5-c]pyridin-5-yl)-1,3,4-oxadiazole] |
| < 0.5 µM | Fc1ccc(-c2nnc(N3CCc4[nH]cnc4[C@H]3c3cc4c(F)cccn4n3)o2)cc1 [Example 1953, (S)-2-(4-fluorophenyl)-5-(4-(4-fluoropyrazolo[1,5-a]pyridin-2-yl)-1,4,6,7-tetrahydro-5H-imidazo[4,5-c]pyridin-5-yl)-1,3,4-oxadiazole] |
| < 0.5 µM | Cc1cccn2nc([C@@H]3c4nc[nH]c4CCN3C(=O)c3cnc(C(C)(C)F)o3)cc12 [Example 1959, (S)-(2-(2-fluoropropan-2-yl)oxazol-5-yl)(4-(4-methylpyrazolo[1,5-a]pyridin-2-yl)-1,4,6,7-tetrahydro-5H-imidazo[4,5-c]pyridin-5-yl)methanone] |
| > 5 µM | Cc1cccn2nc([C@H]3c4nc[nH]c4CCN3C(=O)c3cnc(-c4cnn(C)c4C)o3)cc12 [Example 1963, (R)-(2-(1,5-dimethyl-1H-pyrazol-4-yl)oxazol-5-yl)(4-(4-methylpyrazolo[1,5-a]pyridin-2-yl)-1,4,6,7-tetrahydro-5H-imidazo[4,5-c]pyridin-5-yl)methanone] |
| < 0.5 µM | O=C(c1nnc(-c2ccccn2)s1)N1CCc2[nH]cnc2[C@H]1c1cc2c(F)cccn2n1 [Example 1968, (S)-(4-(4-fluoropyrazolo [1,5-a]pyridin-2-yl)-1,4,6,7-tetrahydro-5H-imidazo[4,5-c]pyridin-5-yl)(5-(pyridin-2-yl)-1,3,4-thiadiazol-2-yl) methanone] |
| > 5 µM | O=C(c1nnc(-c2ccccn2)s1)N1CCc2[nH]cnc2[C@@H]1c1cc2c(F)cccn2n1 [Example 1969, (R)-(4-(4-fluoropyrazolo [1,5-a]pyridin-2-yl)-1,4,6,7-tetrahydro-5H-imidazo[4,5-c]pyridin-5-yl)(5-(pyridin-2-yl)-1,3,4-thiadiazol-2-yl) methanone] |
| < 0.5 µM | Cc1cccn2nc([C@@H]3c4nc[nH]c4CCN3C(=O)c3nnc(-c4ccccn4)s3)cc12 [Example 1970, (S)-(4-(4-methylpyrazolo [1,5-a]pyridin-2-yl)-1,4,6,7-tetrahydro-5H-imidazo[4,5-c]pyridin-5-yl)(5-(pyridin-2-yl)-1,3,4-thiadiazol-2-yl) methanone] |
| > 5 µM | Cc1cccn2nc([C@H]3c4nc[nH]c4CCN3C(=O)c3nnc(-c4ccccn4)s3)cc12 [Example 1971, (R)-(4-(4-methylpyrazolo [1,5-a]pyridin-2-yl)-1,4,6,7-tetrahydro-5H-imidazo[4,5-c]pyridin-5-yl)(5-(pyridin-2-yl)-1,3,4-thiadiazol-2-yl) methanone] |
| > 5 µM | CC(C)c1cccn2nc([C@H]3c4nc[nH]c4CCN3C(=O)c3nnc(-c4ccn(C(F)F)n4)o3)cc12 [Example 1982, (R)-(5-(1-(difluoromethyl)-1H-pyrazol-3-yl)-1,3,4-oxadiazol-2-yl)(4-(4-isopropylpyrazolo[1,5-a]pyridin-2-yl)-1,4,6,7-tetrahydro-5H-imidazo[4,5-c]pyridin-5-yl)methanone] |
| < 0.5 µM | CC(C)c1cccn2nc([C@@H]3c4nc[nH]c4CCN3C(=O)c3nnc(-c4ccn(C(F)F)n4)o3)cc12 [Example 1983, (S)-(5-(1-(difluoromethyl)-1H-pyrazol-3-yl)-1,3,4-oxadiazol-2-yl)(4-(4-isopropylpyrazolo[1,5-a]pyridin-2-yl)-1,4,6,7-tetrahydro-5H-imidazo[4,5-c]pyridin-5-yl)methanone] |
